Source: PubChem BioAssay (NCI)
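Five compound concentrations were applied to cells in 96-well plates for 48 hours; endpoints were derived by simple linear interpolation of the resulting dose-response curve. At the TGI there is no net growth.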

How the values were obtained:
Test in all cases: NCI anticancer screen, dose series, 48 h
RPMI-8226 leukemia = tested on: RPMI-8226 leukemia
M14 melanoma = tested on: M14 melanoma
SNB-19 CNS = tested on: SNB-19 CNS
786-0 renal = tested on: 786-0 renal
PC-3 prostate = tested on: PC-3 prostate
UACC-257 melanoma = tested on: UACC-257 melanoma
HOP-92 NSCLC = tested on: HOP-92 NSCLC
A498 renal = tested on: A498 renal
RXF 393 renal = tested on: RXF 393 renal
SK-MEL-28 melanoma = tested on: SK-MEL-28 melanoma
SN12C renal = tested on: SN12C renal
NCI-H23 lung = tested on: NCI-H23 lung
OVCAR-8 ovarian = tested on: OVCAR-8 ovarian
TK-10 renal = tested on: TK-10 renal
COLO 205 colon = tested on: COLO 205 colon
DU-145 prostate = tested on: DU-145 prostate
OVCAR-5 ovarian = tested on: OVCAR-5 ovarian
SK-MEL-5 melanoma = tested on: SK-MEL-5 melanoma
BT-549 breast = tested on: BT-549 breast
T-47D breast = tested on: T-47D breast
SNB-75 CNS = tested on: SNB-75 CNS
OVCAR-4 ovarian = tested on: OVCAR-4 ovarian
K-562 leukemia = tested on: K-562 leukemia
NCI-H460 lung = tested on: NCI-H460 lung
HL-60(TB) leukemia = tested on: HL-60(TB) leukemia
LOX IMVI melanoma = tested on: LOX IMVI melanoma
MALME-3M melanoma = tested on: MALME-3M melanoma
MDA-MB-231 breast = tested on: MDA-MB-231 breast
HCT-15 colon = tested on: HCT-15 colon
SK-OV-3 ovarian = tested on: SK-OV-3 ovarian
NCI/ADR-RES ovarian = tested on: NCI/ADR-RES ovarian
HS 578T breast = tested on: HS 578T breast
EKVX NSCLC = tested on: EKVX NSCLC
HOP-62 NSCLC = tested on: HOP-62 NSCLC
UO-31 renal = tested on: UO-31 renal
MDA-MB-435 = tested on: MDA-MB-435
CCRF-CEM leukemia = tested on: CCRF-CEM leukemia
SF-539 CNS = tested on: SF-539 CNS
MOLT-4 leukemia = tested on: MOLT-4 leukemia
MDA-N = tested on: MDA-N
SF-268 CNS = tested on: SF-268 CNS
U251 CNS = tested on: U251 CNS
NCI-H522 lung = tested on: NCI-H522 lung
UACC-62 melanoma = tested on: UACC-62 melanoma
HT29 colon = tested on: HT29 colon
NCI-H226 lung = tested on: NCI-H226 lung
IGROV1 ovarian = tested on: IGROV1 ovarian
ACHN renal = tested on: ACHN renal
SW-620 colon = tested on: SW-620 colon
SF-295 CNS = tested on: SF-295 CNS
HCC-2998 colon = tested on: HCC-2998 colon
A549 NSCLC = tested on: A549 NSCLC
OVCAR-3 ovarian = tested on: OVCAR-3 ovarian
CAKI-1 renal = tested on: CAKI-1 renal
SR leukemia = tested on: SR leukemia
HCT-116 colon = tested on: HCT-116 colon
KM12 colon = tested on: KM12 colon
SK-MEL-2 melanoma = tested on: SK-MEL-2 melanoma
MCF7 breast = tested on: MCF7 breast

Work on `C(=C\N1CCCCC1)/c1nnnn1-c1ccccc1` yielded a TGI (RPMI-8226 leukemia) of 59.6 µM, a TGI (M14 melanoma) of 38.5 µM and a TGI (SNB-19 CNS) greater than 100 µM. It also gave a TGI (786-0 renal) greater than 100 µM, a TGI (PC-3 prostate) greater than 100 µM and a TGI (UACC-257 melanoma) greater than 100 µM. It also gave a TGI (HOP-92 NSCLC) greater than 100 µM, a TGI (A498 renal) greater than 100 µM and a TGI (RXF 393 renal) of 56.6 µM. For the same molecule, the TGI (SK-MEL-28 melanoma) was greater than 100 µM, the TGI (SN12C renal) was greater than 100 µM and the TGI (NCI-H23 lung) was greater than 100 µM. It also gave a TGI (OVCAR-8 ovarian) of 95 µM, a TGI (TK-10 renal) greater than 100 µM and a TGI (COLO 205 colon) greater than 100 µM. It also gave a TGI (DU-145 prostate) greater than 100 µM, a TGI (OVCAR-5 ovarian) greater than 100 µM and a TGI (SK-MEL-5 melanoma) of 58.9 µM. For the same molecule, the TGI (BT-549 breast) was greater than 100 µM, the TGI (T-47D breast) was 76.3 µM and the TGI (SNB-75 CNS) was 69.7 µM. For the same molecule, the TGI (OVCAR-4 ovarian) was greater than 100 µM, the TGI (K-562 leukemia) was greater than 100 µM and the TGI (NCI-H460 lung) was greater than 100 µM. The TGI (HL-60(TB) leukemia) was 37.7 µM, the TGI (LOX IMVI melanoma) was 50.9 µM and the TGI (MALME-3M melanoma) was greater than 100 µM. The TGI (MDA-MB-231 breast) was 61.6 µM, the TGI (HCT-15 colon) was greater than 100 µM and the TGI (SK-OV-3 ovarian) was 63.3 µM. For the same molecule, the TGI (NCI/ADR-RES ovarian) was 64.5 µM, the TGI (HS 578T breast) was 49.4 µM and the TGI (EKVX NSCLC) was 63.1 µM. For the same molecule, the TGI (HOP-62 NSCLC) was greater than 100 µM, the TGI (UO-31 renal) was greater than 100 µM and the TGI (MDA-MB-435) was 66.1 µM. For the same molecule, the TGI (CCRF-CEM leukemia) was 61.1 µM, the TGI (SF-539 CNS) was 76.6 µM and the TGI (MOLT-4 leukemia) was 41.9 µM. For the same molecule, the TGI (MDA-N) was greater than 100 µM, the TGI (SF-268 CNS) was 84 µM and the TGI (U251 CNS) was 80.3 µM. The TGI (NCI-H522 lung) was greater than 100 µM, the TGI (UACC-62 melanoma) was 54.5 µM and the TGI (HT29 colon) was greater than 100 µM. It also gave a TGI (NCI-H226 lung) greater than 100 µM, a TGI (IGROV1 ovarian) of 82.8 µM and a TGI (ACHN renal) greater than 100 µM. For the same molecule, the TGI (SW-620 colon) was greater than 100 µM, the TGI (SF-295 CNS) was 66.9 µM and the TGI (HCC-2998 colon) was greater than 100 µM. The TGI (A549 NSCLC) was greater than 100 µM, the TGI (OVCAR-3 ovarian) was 90.6 µM and the TGI (CAKI-1 renal) was 38.2 µM. For the same molecule, the TGI (SR leukemia) was 55 µM, the TGI (HCT-116 colon) was greater than 100 µM and the TGI (KM12 colon) was greater than 100 µM.

For `Cc1ccc(NC(=O)C(=O)CC(=O)c2sc(Nc3c(C)cccc3C)nc2C)cc1C`, the TGI (RPMI-8226 leukemia) was greater than 100 µM, the TGI (SK-MEL-2 melanoma) was greater than 100 µM and the TGI (M14 melanoma) was greater than 100 µM. The TGI (SNB-19 CNS) was greater than 100 µM, the TGI (786-0 renal) was greater than 100 µM and the TGI (PC-3 prostate) was greater than 100 µM. The TGI (UACC-257 melanoma) was greater than 100 µM, the TGI (HOP-92 NSCLC) was greater than 100 µM and the TGI (RXF 393 renal) was greater than 100 µM. For the same molecule, the TGI (SK-MEL-28 melanoma) was greater than 100 µM, the TGI (SN12C renal) was greater than 100 µM and the TGI (NCI-H23 lung) was greater than 100 µM. For the same molecule, the TGI (OVCAR-8 ovarian) was greater than 100 µM, the TGI (TK-10 renal) was greater than 100 µM and the TGI (COLO 205 colon) was greater than 100 µM. It also gave a TGI (DU-145 prostate) greater than 100 µM, a TGI (OVCAR-5 ovarian) greater than 100 µM and a TGI (SK-MEL-5 melanoma) greater than 100 µM. It also gave a TGI (BT-549 breast) greater than 100 µM, a TGI (T-47D breast) greater than 100 µM and a TGI (OVCAR-4 ovarian) greater than 100 µM. The TGI (K-562 leukemia) was greater than 100 µM, the TGI (NCI-H460 lung) was greater than 100 µM and the TGI (HL-60(TB) leukemia) was greater than 100 µM. For the same molecule, the TGI (LOX IMVI melanoma) was greater than 100 µM, the TGI (MDA-MB-231 breast) was greater than 100 µM and the TGI (HCT-15 colon) was greater than 100 µM. It also gave a TGI (SK-OV-3 ovarian) greater than 100 µM, a TGI (NCI/ADR-RES ovarian) greater than 100 µM and a TGI (HS 578T breast) greater than 100 µM. For the same molecule, the TGI (EKVX NSCLC) was greater than 100 µM, the TGI (HOP-62 NSCLC) was greater than 100 µM and the TGI (UO-31 renal) was greater than 100 µM. For the same molecule, the TGI (MDA-MB-435) was greater than 100 µM, the TGI (CCRF-CEM leukemia) was greater than 100 µM and the TGI (SF-539 CNS) was greater than 100 µM. The TGI (MOLT-4 leukemia) was greater than 100 µM, the TGI (MDA-N) was greater than 100 µM and the TGI (MCF7 breast) was greater than 100 µM. It also gave a TGI (SF-268 CNS) greater than 100 µM, a TGI (U251 CNS) greater than 100 µM and a TGI (NCI-H522 lung) greater than 100 µM. The TGI (UACC-62 melanoma) was greater than 100 µM, the TGI (HT29 colon) was greater than 100 µM and the TGI (NCI-H226 lung) was greater than 100 µM. The TGI (IGROV1 ovarian) was greater than 100 µM, the TGI (ACHN renal) was greater than 100 µM and the TGI (SW-620 colon) was greater than 100 µM. For the same molecule, the TGI (SF-295 CNS) was greater than 100 µM, the TGI (HCC-2998 colon) was greater than 100 µM and the TGI (A549 NSCLC) was greater than 100 µM. It also gave a TGI (OVCAR-3 ovarian) greater than 100 µM, a TGI (CAKI-1 renal) greater than 100 µM and a TGI (SR leukemia) greater than 100 µM. For the same molecule, the TGI (HCT-116 colon) was greater than 100 µM and the TGI (KM12 colon) was greater than 100 µM.

With `CCOc1cc(NC(C)=O)ccc1C(=O)NN1C(=O)CSC1c1ccccc1` (stereo unspecified) the TGI (RPMI-8226 leukemia) was greater than 100 µM, the TGI (SK-MEL-2 melanoma) was greater than 100 µM and the TGI (M14 melanoma) was greater than 100 µM. It also gave a TGI (SNB-19 CNS) greater than 100 µM, a TGI (786-0 renal) greater than 100 µM and a TGI (PC-3 prostate) greater than 100 µM. The TGI (UACC-257 melanoma) was greater than 100 µM, the TGI (HOP-92 NSCLC) was greater than 100 µM and the TGI (A498 renal) was greater than 100 µM. The TGI (RXF 393 renal) was greater than 100 µM, the TGI (SK-MEL-28 melanoma) was greater than 100 µM and the TGI (SN12C renal) was greater than 100 µM. For the same molecule, the TGI (NCI-H23 lung) was greater than 100 µM, the TGI (OVCAR-8 ovarian) was greater than 100 µM and the TGI (TK-10 renal) was greater than 100 µM. The TGI (COLO 205 colon) was greater than 100 µM, the TGI (DU-145 prostate) was greater than 100 µM and the TGI (OVCAR-5 ovarian) was greater than 100 µM. For the same molecule, the TGI (SK-MEL-5 melanoma) was greater than 100 µM, the TGI (BT-549 breast) was greater than 100 µM and the TGI (T-47D breast) was greater than 100 µM. For the same molecule, the TGI (SNB-75 CNS) was greater than 100 µM, the TGI (OVCAR-4 ovarian) was greater than 100 µM and the TGI (K-562 leukemia) was greater than 100 µM. The TGI (NCI-H460 lung) was greater than 100 µM, the TGI (HL-60(TB) leukemia) was greater than 100 µM and the TGI (LOX IMVI melanoma) was greater than 100 µM. The TGI (MALME-3M melanoma) was greater than 100 µM, the TGI (MDA-MB-231 breast) was greater than 100 µM and the TGI (HCT-15 colon) was greater than 100 µM. It also gave a TGI (SK-OV-3 ovarian) greater than 100 µM, a TGI (NCI/ADR-RES ovarian) greater than 100 µM and a TGI (HS 578T breast) greater than 100 µM. For the same molecule, the TGI (EKVX NSCLC) was greater than 100 µM, the TGI (HOP-62 NSCLC) was greater than 100 µM and the TGI (UO-31 renal) was greater than 100 µM. The TGI (MDA-MB-435) was greater than 100 µM, the TGI (CCRF-CEM leukemia) was greater than 100 µM and the TGI (SF-539 CNS) was greater than 100 µM. The TGI (MOLT-4 leukemia) was 58.2 µM, the TGI (MDA-N) was greater than 100 µM and the TGI (MCF7 breast) was greater than 100 µM. For the same molecule, the TGI (SF-268 CNS) was greater than 100 µM, the TGI (NCI-H522 lung) was greater than 100 µM and the TGI (UACC-62 melanoma) was greater than 100 µM. It also gave a TGI (HT29 colon) greater than 100 µM, a TGI (NCI-H226 lung) greater than 100 µM and a TGI (IGROV1 ovarian) greater than 100 µM. For the same molecule, the TGI (ACHN renal) was greater than 100 µM, the TGI (SW-620 colon) was greater than 100 µM and the TGI (SF-295 CNS) was greater than 100 µM. The TGI (HCC-2998 colon) was greater than 100 µM, the TGI (A549 NSCLC) was greater than 100 µM and the TGI (OVCAR-3 ovarian) was greater than 100 µM. For the same molecule, the TGI (CAKI-1 renal) was greater than 100 µM, the TGI (SR leukemia) was greater than 100 µM and the TGI (HCT-116 colon) was greater than 100 µM. For the same molecule, the TGI (KM12 colon) was greater than 100 µM.
